In patent US20260000735A1, “ENHANCED DIFFERENTIATION OF BETA CELLS” (Vertex Pharmaceuticals Incorporated, priority 2019, published 2026):

What was measured:
Type in all cases: cell-based
[1] = system: SC-β cells (Nkx6.1/Isl1 double positive cells); experiment: Percent SC-β cells (Nkx6.1/Isl1 double positive) by FACS; conditions: for SC-β cell percent in stage 6: added to the culture medium during days 1-10 of stage 6, JJKK 048 1 μM, KML 29 10 μM, NF 1819 10 μM
Description: (§1) In this instance cryopreserved stage 5 individual cells were thawed and cultured in a modified stage 5 (S5) medium during the first 4 days of Stage 6 (S6d1-d4) […], with subsequent culture of the cells in Stage 6 (S6) medium (see experimental outline in FIG. 2).
(§2) The effect of supplementing the modified S5 medium used in stage 6 with one or more saturated fatty acid of unsaturated fatty acid was analyzed. The fatty acids analyzed included palmitate (saturated fatty acid), oleic acid (unsaturated fatty acid), linoleic acid (unsaturated fatty acid), and palmitoleic acid (unsaturated fatty acid) (see protocol is outlined in FIG. 20). The fatty acid free HSA+fatty acid were stirred for 1 hour at 37° C.
MGLL (monoacylglycerol lipase) is a serine hydrolase that catalyzes the conversion of monoacylglycerides to free fatty acids and glycerol. The effect of three highly specific MGLL inhibitors (JJKK 048 (1 μM), KML 29 (10 μM), NF 1819 (10 μM)) on SC-β cell production was analyzed.
Stage 5 insulin-positive endocrine cell clusters were differentiated from stem cells as described herein. The insulin-positive endocrine cell clusters were dissociated such that the majority of the dissociated cells were now individual cells, and the cells were then cryopreserved, and thawed. The thawed individual cells were then differentiated into β cell clusters through a stage 6 differentiation. […] The base medium of MDCB 131 with 0.05% HSA was used for days 5-11 of stage 6 (FIG. 30, FIG. 31).

[2] = system: thawed cryopreserved stage 5 cells; experiment: Cell recovery / viable cell number in stage 6 culture after thaw of cryopreserved stage 5 cells; conditions: inclusion in DS3 media
Description: The insulin-positive endocrine progenitor cell clusters were dissociated such that the majority of the dissociated cells were individual cells, and the cells were cryopreserved, and thawed. The thawed cells are then differentiated into β cell clusters through a stage 6 differentiation. The stage 6 culture medium comprises DMEM F12 base with 1% human serum albumin (HSA), and optionally 1.5 μM zinc (“DS2 medium”). […] Thus, whether alteration of the S6 medium could improve recovery was analyzed.
In this instance cryopreserved stage 5 individual cells were thawed and cultured in a modified stage 5 (S5) medium during the first 4 days of Stage 6 (S6d1-d4) (approximately 72 hours), with subsequent culture of the cells in Stage 6 (S6) medium (see experimental outline in FIG. 2).
Several factor drop out experiments were conducted to identify the contribution of each factor.

[3] = system: SC-islet cell clusters; experiment: Cell cluster size, morphology, homogeneity, re-aggregation and stability (microscopy); conditions: day 6 of stage 6 (S6d6), fatty acid supplementation
Description: as §2
A select number of metabolites were included in the DS6 medium, including: glutamate, acetate, β hydroxybutarate, L-caratine, taurine, formate, and biotin.

[4] = system: SC-β cells / SC-islets; experiment: Glucose stimulated insulin secretion (GSIS), human C-peptide per 1000 cells; conditions: day 10 of stage 6 (S6d10); addition post day 4 of stage 6
Description: FIG. 18A is a bar graph showing the glucose stimulated insulin secretion (GSIS) of cells at day 12 of stage 6 (S6d12). GSIS was measured as the level of human C-peptide (pM) per 1000 cells after glucose stimulation. The cells were cultured in stage 6 (S6) medium+1% HSA for days 1-12 of stage 6.
A range of 2.8 mM and 20 mM glucose was used to stimulate GSIS (See experimental protocol FIG. 13).

[5] = system: SC-β cells; experiment: Number / recovery / yield of SC-β cells in stage 6; conditions: day 10 of stage 6; with 0.5% HSA
Description: as §1, §2

| SMILES | SC-β cell percent in stage 6 [1] | size of the cell clusters [3] | also measured |
| --- | --- | --- | --- |
| O=C(OC(C(F)(F)F)C(F)(F)F)N1CCC(C(O)(c2ccc3c(c2)OCO3)c2ccc3c(c2)OCO3)CC1 [KML 29] | around 50% | – | – |
| O=C(N1CCC(C(c2ccc3c(c2)OCO3)c2ccc3c(c2)OCO3)CC1)n1cncn1 [JJKK 048] | around 50% | – | – |
| O=S(=O)([O-])[O-].[Zn+2] [ZnSO4] | – | – | S6d4 viable cell number [2]: greatly improves S6d4 viable cell number |
| CCCCC/C=C\C/C=C\CCCCCCCC(=O)O [linoleic acid] | – | enhances the size of the cell clusters | – |
| CCCCCCCCCCCCCCCC(=O)O [palmitate, palmitic acid] | – | enhances the size of the cell clusters | GSIS [4]: improves GSIS; total number of SC-β cells recovered [5]: enhanced the total number of SC-β cells recovered; percent of SC-β cells (Nkx6.1/Isl1 double positive cells) recovered ([1]; fatty acid added to the modified S5 medium, days 1-4 of stage 6): improved |
| O=C1[C@H](c2ccc(F)cc2)[C@@H](c2ccc3c(c2)OCO3)N1C1CCN(C(=O)n2cncn2)CC1 [NF 1819] | around 50% | – | – |
